According to PMC13401508 (Pharmacological research, 2026):
Converted amounts (≈) assume the structure as drawn. “Also recorded” adds a separate entry of the source.

Legend:
[1] = system: PC3-ML, ARCaP-M, C4–2B, RM1-BM and TRAMP-C2 cells; assay: Boyden chamber / Transwell Matrigel invasion assay; format: cell-based, human and murine; details: 25 μM, 18 hrs, all five cell lines
Procedure: Boyden chamber assays were performed using Corning® BioCoat® Matrigel® Invasion Chambers obtained from Corning Inc., USA. In brief, cells were seeded on the Matrigel-coated upper chamber and treated with IVMT-Rx-4. Invaded cells were fixed, stained and counted after 18 hrs. as previously described.
Fig. 1. Primary characterization of IVMT-Rx-4. A) Chemical structure (upper panel) and synthesis scheme (lower panel). […] All proteins were extracted, and Western blotting was performed immediately after heating. Quantifications were obtained in the absence (control) or presence of IVMT-Rx-4 and values are presented as percentage of RT (room temperature) normalized for the experimental groups (control, IVMT-Rx-4). SOD (Superoxide dismutase) was used as an endogenous control. […] Colonies were stained with crystal violet and counted (n = 3 ± SD; ns: non-significant). […] Invaded cells were stained with crystal violet. Top panel: representative photograph of invaded cells under different experimental settings. Bottom panel: graphical representation of number of invaded cells/field for different cell lines (n = 3 ± SD; * p < 0.05).

[2] = Thermodynamic solubility in PBS, pH 7.4; format: physicochemical
[3] = molecular target: T1, CYP3A4 (Homo sapiens, UniProt P08684); assay: Drug-substrate based CYP inhibition, 3A4; format: in vitro ADME; details: human liver microsomes
T1 construct: in the presence of human liver microsomes; from tissue; host or cells: human liver microsomes
T1 sequence (P08684 whole entry): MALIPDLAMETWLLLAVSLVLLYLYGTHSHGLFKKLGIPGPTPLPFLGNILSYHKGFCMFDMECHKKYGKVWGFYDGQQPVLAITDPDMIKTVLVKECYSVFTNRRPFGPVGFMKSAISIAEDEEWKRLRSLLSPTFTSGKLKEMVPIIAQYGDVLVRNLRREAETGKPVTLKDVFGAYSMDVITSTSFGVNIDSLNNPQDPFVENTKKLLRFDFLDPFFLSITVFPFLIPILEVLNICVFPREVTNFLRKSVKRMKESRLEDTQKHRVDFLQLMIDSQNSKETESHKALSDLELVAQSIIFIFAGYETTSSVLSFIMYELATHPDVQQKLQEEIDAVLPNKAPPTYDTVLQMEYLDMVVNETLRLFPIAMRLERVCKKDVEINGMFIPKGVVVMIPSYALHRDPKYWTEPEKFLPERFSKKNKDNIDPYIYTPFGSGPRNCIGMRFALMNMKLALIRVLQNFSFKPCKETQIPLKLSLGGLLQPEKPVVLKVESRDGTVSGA
Procedure: IVMT-Rx-4 was incubated with selective probe substrates of each CYP isoform in the presence of human liver microsomes. The formation of metabolite was quantified using LC-MS/MS methods. The extent of inhibition was assessed by calculating the remaining enzyme activity and percent inhibition based on analyte-to-internal standard area ratios, using the following equations:
Area Ratio = Peak AreaAnalyte / Peak AreaInternal Standard
Remaining Activity (%) = Area Ratiotest compound / Area Ratiovehicle ×100
Inhibition (%) = 100 ̶ Remaining Activity (%)

[4] = molecular target: T1, CYP3A4; assay: Time dependent CYP inhibition (TDI); format: in vitro ADME; details: human liver microsomes, with or without NADPH
Procedure: Then, the specific CYP3A4 substrate was added, and aliquots were collected at various time points. Samples were then diluted with ultra-pure water and analyzed by LC-MS/MS. Area ratio and remaining Activity (%) were calculated as above and IC50 values was calculated using Excel XLfit 5.3.1.3.

[5] = Solubility study in bio-relevant media, buffers and solvents; format: physicochemical
[6] = system: YAP; assay: Western blot, PDGF-AA activated HS5 cells: YAP; format: cell-based, human; details: PDGF-AA 10 ng/ML, 25 μM, 24 hrs
[7] = system: CXCL5; assay: CXCL5 mRNA by qRT-PCR in murine BM-MSCs (WT and mda-9 KO); format: cell-based, C57BL/6 mice; details: murine PDGF-AA 10 ng/ML, 25 μM, 24 hrs
Procedure: Total bone marrow cells were collected from 6 to 8 weeks male MDA-9/Syntenin^WT (mda-9^WT) and global MDA-9/Syntenin knockout (mda-9^−/−) mice as previously described in Das et al.. mda-9^WT and mda-9^−/− bone marrow derived mesenchymal stromal cells were isolated using a previously outlined protocol.
Fig. 3. […] CXCL5 mRNA expression was measured by qRT-PCR. […] Secreted CXCL5 in CM was measured by ELISA (n = 3 ± SD; * p < 0.05). […] CXCL5 mRNA expression was measured by qRT-PCR (n = 3 ± SD; * p < 0.05).

[8] = system: RM1-BM-Luc cells; assay: Experimental bone metastasis, intracardiac RM1-BM-Luc; format: in vivo, C57BL/6 mice
Procedure: For experimental bone metastasis experiments, 3 × 10^4 RM1-BM-Luc cells were injected by the intracardiac route to develop bone-metastases in 6- to 8-week-old male C57BL/6 mice as described previously. Incidence of metastasis was monitored using Bioluminescence imaging, as described previously.
Fig. 4. […] RM1-BM-Luc cells were injected through the intracardiac (I.C.) route into C57BL/6 mice to establish experimental bone metastases. […] A) BLI imaging was performed on day 15 and the number of bone metastasis positive mice were graphically represented as metastatic events. B) Calculated ROI values are graphically represented (n = 6 ± SEM; * p < 0.05). C) Ex vivo BLI image of representative bones from both vehicle and IVMT-Rx-4 treated animals. D) Representative ex vivo images and (E) number of animals positive for metastases in the lungs, liver, brain and spleen for each experimental group ae presented.

[9] = system: RM1-BM-Luc cells; assay: Combination and survival study, RM1-BM-Luc syngeneic model; format: in vivo, C57BL/6 mice; details: RM1-BM-Luc in C57BL/6, day 14, IVMT-Rx-4 30 mg/kg and/or Docetaxel 5 mg/kg 3X a week for two weeks
Procedure: Both syngeneic (C57BL/6) and athymic nude mice were used for survival studies. Tumor cells (RM1-BM-Luc or PC3-ML-Luc) were injected intracardially in a cohort of 40 animals. […] In the combination groups, both regimens were administered 3X a week for two-weeks at the same dose as a single therapy. Animals were imaged periodically and maintained until euthanization was required.
Fig. 5. […] A and B) RM1-BM-Luc (A) or PC3-ML-Luc (B) cells were implanted I.C. in C57BL/6 and athymic nude mice, respectively. […] BLI images were used to detect bone metastases (the percentage incidence of bone metastases in animals was calculated at a single time point, day 14). Values are presented at the bottom panel of the respective group (red, number of animals positive for metastasis and black, total number of experimental animals). C and D) Animals were kept until mandated euthanasia based on IACUC guidelines, considered as disease associated death. The Kaplan–Meier survival curves were generated using GraphPad in both models as described in (A) and (B), respectively. E and F) Log-rank test was performed and values between different experimental groups are presented.

[10] = tumor-bearing animals, 30 mg/kg I.P., vs DMSO

## Cc1cc(NC(=O)CCc2nnc(-c3ccccc3)o2)c(C)cc1N [IVMT-Rx-4]
[1]
  cellular invasion: effectively suppressed cellular invasion
[2]
  Thermodynamic solubility in PBS, pH 7.4: ~160 mg/ML
[2]; pH 7.4, aqueous buffer, thermodynamic from solid
  solubility thermodynamic: 160 mg/mL (≈ 476 mM)
[3]
  IC50: ~10 µM
[4]
  Time-dependent inhibition (TDI), CYP3A4: no time-dependent inhibition; also recorded: No TDI
[5]; FaSSIF, FeSSIF and SIF
  solubility in FaSSIF, FeSSIF and SIF: low solubility
[5]; MeOH, EtOH, CH2Cl2, Acetone and MeCN
  solubility in organic solvents: relatively good solubility
[5]; SGF
  solubility in SGF: relative high solubility
[5]; after the solubility test, both media
  stability in SGF and pH 1.2 buffer: degradation was observed
[5]; hexane
  solubility in hexane: almost insoluble
[5]; solubility increased with a decrease of pH
  pH dependence of solubility: pH dependent
[5]; water
  solubility in water: low solubility
[6]
  phosphorylation of YAP at ser127: promoted
[7]; mBM-MSC WT
  CXCL5 mRNA expression: CXCL5 suppression occurred exclusively in mBM-MSC^WT
[7]; mBM-MSC mda-9 KO
  CXCL5 mRNA expression: not in mBM-MSC^mda−9 KO cells
[8]; 30 mg/kg I.P. 3X a week for two weeks, fourteen days post-intracardiac injection, BLI
  animals with bone metastases: 0 out of 6
[8]; 30 mg/kg I.P., 6 doses
  Ex Vivo Imaging; Positive for tumor cells (n=6) Brain: 0
  Ex Vivo Imaging; Positive for tumor cells (n=6) Liver: 2
  Ex Vivo Imaging; Positive for tumor cells (n=6) Lungs: 6
  Ex Vivo Imaging; Positive for tumor cells (n=6) Spleen: 0
[8]; 30 mg/kg I.P., ex-vivo imaging
  metastasis to the liver, brain and spleen, as well as to the bones: partially prevented metastasis
[8]; [10]
  CXCL5 in the serum of mice: reduced expression
  PDGF-AA in the serum of mice: reduced expression
[9]
  bone metastases, Incident/Total number tested: 3/8
